The first assay deals with T1, Liver carboxylesterase 1 (Homo sapiens, UniProt P23141).
T1 sequence (P23141 whole entry): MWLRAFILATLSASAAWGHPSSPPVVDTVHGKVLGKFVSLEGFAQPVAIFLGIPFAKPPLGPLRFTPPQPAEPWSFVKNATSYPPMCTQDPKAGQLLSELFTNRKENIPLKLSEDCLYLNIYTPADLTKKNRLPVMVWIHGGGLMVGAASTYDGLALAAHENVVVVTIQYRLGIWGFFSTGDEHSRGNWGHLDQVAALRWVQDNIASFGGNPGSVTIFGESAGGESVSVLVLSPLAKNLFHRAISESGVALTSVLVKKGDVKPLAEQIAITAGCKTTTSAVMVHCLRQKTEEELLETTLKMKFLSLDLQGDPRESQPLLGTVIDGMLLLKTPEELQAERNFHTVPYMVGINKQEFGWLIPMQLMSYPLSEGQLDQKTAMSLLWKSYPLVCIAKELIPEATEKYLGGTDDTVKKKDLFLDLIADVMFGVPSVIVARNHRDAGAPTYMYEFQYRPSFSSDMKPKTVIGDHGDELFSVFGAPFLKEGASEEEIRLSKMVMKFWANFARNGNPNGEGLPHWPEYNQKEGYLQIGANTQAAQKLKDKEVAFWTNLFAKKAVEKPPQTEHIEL
The assay can be described thus: Inhibition of CES1A1 in human liver microsomes using D-luciferin methyl ester as substrate preincubated for 10 mins followed by substrate addition and measured after 10 mins by fluorescence assay.
Details: not given
In general terms: Microsomes from liver hold many membrane-bound enzymes, among them those of drug oxidation.
For the molecule `CC1(C)CC[C@]2(C(=O)O)CC[C@]3(C)C(=CC[C@@H]4[C@@]5(C)CC[C@H](O)C(C)(C)[C@@H]5CC[C@]43C)[C@@H]2C1` [OLEANOLIC_ACID], inhibition was half-maximal at 100 nM (IC50). Take `C=C(C)[C@@H]1CC[C@]2(C(=O)O)CC[C@]3(C)[C@H](CC[C@@H]4[C@@]5(C)CC[C@@H]6OC(C)(C)OC[C@@]6(C)[C@@H]5CC[C@]43C)[C@@H]12`: the IC50 – broadly, the concentration that gives 50% inhibition – was determined as 100 nM. Same read-out and setting: next, `CC1(C)CC[C@]2(C)CC[C@]3(C)C(=CC[C@@H]4[C@@]5(C)CCC(=O)C(C)(C)[C@@H]5CC[C@]43C)[C@@H]2C1`: 100 nM; `C=C1CC[C@]2(C(=O)O)CC[C@]3(C)C(=CC[C@@H]4[C@@]5(C)CC[C@@H]6OC(C)(C)OC[C@@]6(C)[C@@H]5CC[C@]43C)[C@@H]2C1`: 100 nM; `C=C(C)[C@@H]1CC[C@]2(C)CC[C@]3(C)[C@H](CC[C@@H]4[C@@]5(C)CC[C@H](O)C(C)(C)[C@@H]5CC[C@]43C)[C@@H]12` [LUPEOL]: 100 nM. `CC1(C)CC[C@]2(C(=O)O)CC[C@]3(C)C(=CC[C@@H]4[C@@]5(C)CC[C@@H]6OC(C)(C)OC[C@@]6(C)[C@@H]5CC[C@]43C)[C@@H]2C1` came in with an IC50 of 100 nM. Still for that read-out and setting: in the case of `C[C@H]1[C@H](C)CC[C@]2(C(=O)O)CC[C@]3(C)C(=CC[C@@H]4[C@@]5(C)CC[C@H](O)C(C)(C)[C@@H]5CC[C@]43C)[C@H]12` [URSOLIC ACID] it was 100 nM; in that of `C=C(C)[C@@H]1CC[C@]2(C(=O)O)CC[C@]3(C)[C@H](CC[C@@H]4[C@@]5(C)CC[C@H](O)[C@@](C)(CO)[C@@H]5CC[C@]43C)[C@@H]12`, 100 nM; in that of `C=C1CC[C@]2(C(=O)O)CC[C@]3(C)C(=CC[C@@H]4[C@@]5(C)CC[C@H](O)[C@@](C)(CO)[C@@H]5CC[C@]43C)[C@@H]2C1`, 100 nM.

The next assay is filed under the species Homo sapiens. In words: Selectivity ratio of IC50 for inhibition of CES2A1 in human liver microsomes to IC50 for CES1A1 in human liver microsomes. The settings on record: Microsome.
On to `CC1(C)CC[C@]2(C(=O)O)CC[C@]3(C)C(=CC[C@@H]4[C@@]5(C)CC[C@H](O)C(C)(C)[C@@H]5CC[C@]43C)[C@@H]2C1` [OLEANOLIC_ACID], for which the Ratio IC50 is 30. As to `C=C(C)[C@@H]1CC[C@]2(C(=O)O)CC[C@]3(C)[C@H](CC[C@@H]4[C@@]5(C)CC[C@@H]6OC(C)(C)OC[C@@]6(C)[C@@H]5CC[C@]43C)[C@@H]12`, the Ratio IC50 came out at 30. Same read-out and setting: in the case of `C=C1CC[C@]2(C(=O)O)CC[C@]3(C)C(=CC[C@@H]4[C@@]5(C)CC[C@@H]6OC(C)(C)OC[C@@]6(C)[C@@H]5CC[C@]43C)[C@@H]2C1` it was 30. Same read-out and setting: next, `C=C(C)[C@@H]1CC[C@]2(C)CC[C@]3(C)[C@H](CC[C@@H]4[C@@]5(C)CC[C@H](O)C(C)(C)[C@@H]5CC[C@]43C)[C@@H]12` [LUPEOL]: 30; `CC1(C)CC[C@]2(C(=O)O)CC[C@]3(C)C(=CC[C@@H]4[C@@]5(C)CC[C@@H]6OC(C)(C)OC[C@@]6(C)[C@@H]5CC[C@]43C)[C@@H]2C1`: 30; `C[C@H]1[C@H](C)CC[C@]2(C(=O)O)CC[C@]3(C)C(=CC[C@@H]4[C@@]5(C)CC[C@H](O)C(C)(C)[C@@H]5CC[C@]43C)[C@H]12` [URSOLIC ACID]: 30. Take `C=C(C)[C@@H]1CC[C@]2(C(=O)O)CC[C@]3(C)[C@H](CC[C@@H]4[C@@]5(C)CC[C@H](O)[C@@](C)(CO)[C@@H]5CC[C@]43C)[C@@H]12`: the Ratio IC50 is 30. The same measure, in the same setting: in the case of `C=C1CC[C@]2(C(=O)O)CC[C@]3(C)C(=CC[C@@H]4[C@@]5(C)CC[C@H](O)[C@@](C)(CO)[C@@H]5CC[C@]43C)[C@@H]2C1` it was 30.

Source of the values: ChEMBL document CHEMBL4699508, “Bioactivity-Guided Discovery of Human Carboxylesterase Inhibitors from the Roots of Paeonia lactiflora” (J Nat Prod, 2020).
